Drawing on BindingDB's records for doi:10.1016/j.bmcl.2006.01.056 (Bristol-Myers Squibb, 2006), this text covers IC50 for one molecule.

For the test, the target named is T1, Kinesin-like protein KIF11 (Homo sapiens, UniProt P52732).
T1 sequence (P52732 whole entry): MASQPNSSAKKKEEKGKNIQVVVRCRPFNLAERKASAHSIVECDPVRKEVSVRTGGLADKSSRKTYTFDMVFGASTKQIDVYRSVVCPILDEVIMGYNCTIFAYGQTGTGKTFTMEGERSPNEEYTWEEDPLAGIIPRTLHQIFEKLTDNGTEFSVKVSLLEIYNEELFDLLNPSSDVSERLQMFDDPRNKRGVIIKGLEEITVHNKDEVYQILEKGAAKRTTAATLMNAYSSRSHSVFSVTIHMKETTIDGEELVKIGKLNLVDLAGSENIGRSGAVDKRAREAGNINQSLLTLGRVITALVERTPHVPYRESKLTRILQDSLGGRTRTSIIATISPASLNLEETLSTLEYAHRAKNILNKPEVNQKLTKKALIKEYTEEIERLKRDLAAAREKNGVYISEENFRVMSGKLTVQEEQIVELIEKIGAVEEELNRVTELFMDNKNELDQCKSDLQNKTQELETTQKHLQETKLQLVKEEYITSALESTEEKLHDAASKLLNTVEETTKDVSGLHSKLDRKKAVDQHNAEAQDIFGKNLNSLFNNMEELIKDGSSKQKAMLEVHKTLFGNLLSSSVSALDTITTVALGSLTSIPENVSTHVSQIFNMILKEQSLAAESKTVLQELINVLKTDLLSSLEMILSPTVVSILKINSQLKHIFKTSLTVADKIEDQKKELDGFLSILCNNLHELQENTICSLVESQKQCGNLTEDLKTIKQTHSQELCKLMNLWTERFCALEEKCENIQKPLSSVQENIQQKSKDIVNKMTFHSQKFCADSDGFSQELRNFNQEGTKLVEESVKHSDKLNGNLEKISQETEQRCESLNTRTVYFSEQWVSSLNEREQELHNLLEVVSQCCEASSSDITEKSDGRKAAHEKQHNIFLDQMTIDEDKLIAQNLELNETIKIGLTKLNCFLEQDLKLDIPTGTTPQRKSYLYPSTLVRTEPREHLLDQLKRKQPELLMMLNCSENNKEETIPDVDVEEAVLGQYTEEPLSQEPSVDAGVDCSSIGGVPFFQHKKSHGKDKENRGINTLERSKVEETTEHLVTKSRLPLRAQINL
As to the kind of experiment: Microtubule-Activated Eg5 ATPase Assay. The method, then: ATPase assays with Eg5 motor domain protein were performed using Kinase-Glo Luminescent Kit as described by the manufacturer (Promega).

`CN(C)C(=O)N1Cc2c(ccc3ccccc23)C(c2cccc(O)c2)C1` (stereo unspecified) [6-(3-hydroxyphenyl)-N,N-dimethyl-4-azatricyclo[8.4.0.0^{2,7}]tetradeca-1(10),2(7),8,11,13-pentaene-4-carboxamide]: half-maximal inhibition (IC50) was put at 477 nM. That is a sub-micromolar value.
